Target: human F508del-CFTR (Homo sapiens, UniProt P13569, DEL508-508)
Experiment: F508del-CFTR cell surface expression (corrector activity), DiscoveRx ß-galactosidase complementation chemiluminescence assay in recombinant U2OS cell line;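 further: U2OS cells co-expressing ProLink-tagged F508del-CFTR and a membrane-anchored enzyme acceptor, where more surface CFTR restores β-galactosidase activity measured by chemiluminescence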
Settings: for Emax: arithmetic mean values; for EC50: EC50, F508del-CFTR cell surface expression, geomean values
[1] = U2OS, in relation to the Emax of the corrector lumacaftor (=100%), U2OS cell line, 16h compound incubation
[2] = U2OS cell line, 16h compound incubation
[3] = U2OS, in relation to Emax of corrector lumacaftor (=100%)
[4] = U2OS cells, 16h compound incubation
[5] = in relation to Emax of corrector lumacaftor (=100%)

Sequence of human F508del-CFTR (P13569 with tags, fused parts or gaps DEL508-508): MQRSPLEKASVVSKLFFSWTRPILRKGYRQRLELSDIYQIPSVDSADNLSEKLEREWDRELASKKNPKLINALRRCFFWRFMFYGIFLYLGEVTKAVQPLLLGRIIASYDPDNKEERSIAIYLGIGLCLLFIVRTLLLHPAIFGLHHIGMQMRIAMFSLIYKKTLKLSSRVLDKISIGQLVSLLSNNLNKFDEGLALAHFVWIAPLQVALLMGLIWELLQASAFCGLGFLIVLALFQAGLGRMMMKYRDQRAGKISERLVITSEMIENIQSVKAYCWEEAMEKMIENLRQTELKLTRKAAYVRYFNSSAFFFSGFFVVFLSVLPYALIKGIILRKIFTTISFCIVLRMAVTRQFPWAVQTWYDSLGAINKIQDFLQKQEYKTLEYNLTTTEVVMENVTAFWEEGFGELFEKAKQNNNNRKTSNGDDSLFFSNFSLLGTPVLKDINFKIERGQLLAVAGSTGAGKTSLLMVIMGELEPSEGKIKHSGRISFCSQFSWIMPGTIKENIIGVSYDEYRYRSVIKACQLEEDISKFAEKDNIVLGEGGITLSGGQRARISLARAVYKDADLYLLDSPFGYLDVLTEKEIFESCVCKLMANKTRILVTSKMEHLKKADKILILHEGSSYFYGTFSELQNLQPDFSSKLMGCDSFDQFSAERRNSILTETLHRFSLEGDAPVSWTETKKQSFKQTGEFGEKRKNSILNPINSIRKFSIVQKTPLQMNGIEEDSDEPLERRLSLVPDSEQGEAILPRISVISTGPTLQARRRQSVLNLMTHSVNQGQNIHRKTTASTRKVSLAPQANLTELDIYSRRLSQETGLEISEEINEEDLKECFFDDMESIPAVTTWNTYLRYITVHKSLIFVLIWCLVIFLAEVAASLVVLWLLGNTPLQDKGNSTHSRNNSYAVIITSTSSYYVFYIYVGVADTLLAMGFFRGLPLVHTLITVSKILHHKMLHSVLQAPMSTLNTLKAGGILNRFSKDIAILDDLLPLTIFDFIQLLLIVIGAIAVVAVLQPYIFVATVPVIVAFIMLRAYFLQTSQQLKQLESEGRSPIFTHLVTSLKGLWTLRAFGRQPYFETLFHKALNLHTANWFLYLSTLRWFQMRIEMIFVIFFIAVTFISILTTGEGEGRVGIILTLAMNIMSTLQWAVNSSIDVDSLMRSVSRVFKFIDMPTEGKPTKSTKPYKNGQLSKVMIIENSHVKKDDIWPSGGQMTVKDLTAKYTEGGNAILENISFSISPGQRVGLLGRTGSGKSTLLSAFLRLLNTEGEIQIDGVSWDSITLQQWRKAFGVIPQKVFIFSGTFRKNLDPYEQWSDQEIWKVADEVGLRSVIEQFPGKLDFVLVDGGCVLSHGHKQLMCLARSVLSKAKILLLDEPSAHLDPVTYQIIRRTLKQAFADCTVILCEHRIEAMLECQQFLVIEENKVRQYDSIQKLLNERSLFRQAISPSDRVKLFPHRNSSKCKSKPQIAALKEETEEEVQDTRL

Emax [3]	EC50 [4]	Emax [5]	Compound	Emax [1]	EC50 [2]
			COc1cccc(CCNC(=O)[C@@H]2CC(=O)N(C)[C@@H](CC3CCCCC3)C(=O)N(C[C@H]3CCCCO3)CC(=O)N[C@H](Cc3ccccc3)COc3ccc4ccccc4c3C(=O)N2)c1 (racemic) [Example 296, (3RS,7S,13R)-13-benzyl-7-(cyclohexylmethyl)-N-(3-methoxyphenethyl)-6-methyl-1,5,8,11-tetraoxo-9-(((R)-tetrahydro-2H-pyran-2-yl)methyl)-1,2,3,4,5,6,7,8,9,10,11,12,13,14-tetradecahydronaphtho[1,2-p][1]oxa[4,7,10,14]tetraazacycloheptadecine-3-carboxamide]	144%	
			COc1cccc(CCNC(=O)[C@@H]2CC(=O)N(C)[C@@H](CC(C)C)C(=O)N(CC[C@H]3CCCCO3)CC(=O)N[C@H](Cc3ccccc3)COc3ccc4ccccc4c3C(=O)N2)c1 (racemic) [Example 297, (3RS,7S,13R)-13-benzyl-7-isobutyl-N-(3-methoxyphenethyl)-6-methyl-1,5,8,11-tetraoxo-9-(2-((SR)-tetrahydro-2H-pyran-2-yl)ethyl)-1,2,3,4,5,6,7,8,9,10,11,12,13,14-tetradecahydronaphtho[1,2-p][1]oxa[4,7,10,14]tetraazacycloheptadecine-3-carboxamide]	225%	193 nM
			COc1cccc(CCNC(=O)[C@@H]2CC(=O)N(C)[C@@H](CC3CCCC3)C(=O)N(CC[C@H]3CCCCO3)CC(=O)N[C@H](Cc3ccccc3)COc3ccc4ccccc4c3C(=O)N2)c1 (racemic) [Example 298, (3RS,7S,13R)-13-benzyl-7-(cyclopentylmethyl)-N-(3-methoxyphenethyl)-6-methyl-1,5,8,11-tetraoxo-9-(2-((SR)-tetrahydro-2H-pyran-2-yl)ethyl)-1,2,3,4,5,6,7,8,9,10,11,12,13,14-tetradecahydronaphtho[1,2-p][1]oxa[4,7,10,14]tetraazacycloheptadecine-3-carboxamide]	186%	220 nM
			COc1cccc(CCNC(=O)[C@@H]2CC(=O)N(C)[C@@H](CC3CCCCC3)C(=O)N(CC[C@H]3CCCCO3)CC(=O)N[C@H](Cc3ccccc3)COc3ccc4ccccc4c3C(=O)N2)c1 (racemic) [Example 299, (3RS,7S,13R)-13-benzyl-7-(cyclohexylmethyl)-N-(3-methoxyphenethyl)-6-methyl-1,5,8,11-tetraoxo-9-(2-((SR)-tetrahydro-2H-pyran-2-yl)ethyl)-1,2,3,4,5,6,7,8,9,10,11,12,13,14-tetradecahydronaphtho[1,2-p][1]oxa[4,7,10,14]tetraazacycloheptadecine-3-carboxamide]	136%	109 nM
			COc1cccc(CCNC(=O)[C@@H]2CC(=O)N(C)[C@@H](CC3CCCC3)C(=O)N(CCC3CCCCC3)CC(=O)N[C@H](Cc3ccccc3)COc3ccc4ccccc4c3C(=O)N2)c1 (racemic) [Example 300, (3RS,7S,13R)-13-benzyl-9-(2-cyclohexylethyl)-7-(cyclopentylmethyl)-N-(3-methoxyphenethyl)-6-methyl-1,5,8,11-tetraoxo-1,2,3,4,5,6,7,8,9,10,11,12,13,14-tetradecahydronaphtho[1,2-p][1]oxa[4,7,10,14]tetraazacycloheptadecine-3-carboxamide]	210%	
			COc1cccc(CCNC(=O)[C@@H]2CC(=O)N(C)[C@@H](CC3CCCCC3)C(=O)N(CCC3CCCCC3)CC(=O)N[C@H](Cc3ccccc3)COc3ccc4ccccc4c3C(=O)N2)c1 (racemic) [Example 301, (3RS,7S,13R)-13-benzyl-9-(2-cyclohexylethyl)-7-(cyclohexylmethyl)-N-(3-methoxyphenethyl)-6-methyl-1,5,8,11-tetraoxo-1,2,3,4,5,6,7,8,9,10,11,12,13,14-tetradecahydronaphtho[1,2-p][1]oxa[4,7,10,14]tetraazacycloheptadecine-3-carboxamide]	202%	
			COc1cccc(CCNC(=O)[C@@H]2CC(=O)N(C)[C@@H](CC3CCC3)C(=O)N(CCC3CCCCC3)CC(=O)N[C@H](Cc3ccccc3)COc3ccc4ccccc4c3C(=O)N2)c1 (racemic) [Example 302, (3RS,7S,13R)-13-benzyl-7-(cyclobutylmethyl)-9-(2-cyclohexylethyl)-N-(3-methoxyphenethyl)-6-methyl-1,5,8,11-tetraoxo-1,2,3,4,5,6,7,8,9,10,11,12,13,14-tetradecahydronaphtho[1,2-p][1]oxa[4,7,10,14]tetraazacycloheptadecine-3-carboxamide]	193%	106 nM
			COc1cccc(CCNC(=O)[C@@H]2CC(=O)N(C)[C@@H](CC(C)C)C(=O)N(CCC3CCCCC3)CC(=O)N[C@H](Cc3ccccc3)COc3ccc4ccccc4c3C(=O)N2)c1 (racemic) [Example 303, (3RS,7S,13R)-13-benzyl-9-(2-cyclohexylethyl)-7-isobutyl-N-(3-methoxyphenethyl)-6-methyl-1,5,8,11-tetraoxo-1,2,3,4,5,6,7,8,9,10,11,12,13,14-tetradecahydronaphtho[1,2-p][1]oxa[4,7,10,14]tetraazacycloheptadecine-3-carboxamide]	275%	180 nM
			COc1cccc2c1C(=O)N[C@H](C(=O)NCCc1ccc3c(c1)OCO3)CC(=O)N(C)[C@@H](CC(C)C)C(=O)N(CC[C@H]1CCCCO1)CC(=O)N[C@H](Cc1ccccc1)CO2 (racemic) [Example 304, (3R,9S,13S)-N-(2-(benzo[d][1,3]dioxol-5-yl)ethyl)-3-benzyl-9-isobutyl-16-methoxy-10-methyl-5,8,11,15-tetraoxo-7-(2-((RS)-tetrahydro-2H-pyran-2-yl)ethyl)-2,3,4,5,6,7,8,9,10,11,12,13,14,15-tetradecahydrobenzo[p][1]oxa[4,7,10,14]tetraazacycloheptadecine-13-carboxamide]	193%	581 nM
			COc1cccc(CCNC(=O)[C@@H]2CC(=O)N(C)[C@@H](CC(C)C)C(=O)N(CC[C@H]3CCCCO3)CC(=O)N[C@H](Cc3ccccc3)COc3cccc(OC)c3C(=O)N2)c1 (racemic) [Example 310]	202%	788 nM
24%	881 nM		Cc1cc(CCNC(=O)[C@@H]2CC(=O)N(C)[C@@H](CC(C)C)C(=O)N(C)[C@@H](CO)C(=O)N[C@H](Cc3ccccc3)COc3ccc4ccccc4c3C(=O)N2)on1 (racemic) [Example 720, (3S,7S,10RS,13R)-13-benzyl-10-(hydroxymethyl)-7-isobutyl-6,9-dimethyl-N-(2-(3-methylisoxazol-5-yl)ethyl)-1,5,8,11-tetraoxo-1,2,3,4,5,6,7,8,9,10,11,12,13,14-tetradecahydronaphtho[1,2-p][1]oxa[4,7,10,14]tetraazacycloheptadecine-3-carboxamide]		
232%	235 nM		Cc1nc2ccc3c(c2o1)C(=O)N[C@H](C(=O)NCCc1cccc([C@H](C)O)c1)CC(=O)N(C)[C@@H](CC(C)C)C(=O)N(CCC1CCCCC1)CC(=O)N[C@H](Cc1ccccc1)CO3 (racemic) [Example 728, (8R,14S,18S)-8-benzyl-12-(2-cyclohexylethyl)-N-(3-((RS)-1-hydroxyethyl)phenethyl)-14-isobutyl-2,15-dimethyl-10,13,16,20-tetraoxo-7,8,9,10,11,12,13,14,15,16,17,18,19,20-tetradecahydrooxazolo[4′,5′:5,6]benzo[1,2-p][1]oxa[4,7,10,14]tetraazacycloheptadecine-18-carboxamide]		
	421 nM	247%	COc1nccc2c1C(=O)NC(C(=O)NCCc1cc(C3CC3)no1)CC(=O)N(C)C(CC(C)C)C(=O)N(C)C(CC1CCC(F)(F)CC1)C(=O)NC(Cc1ccccc1)CO2 (single isomer, unassigned) [Example 661]		
	124 nM	297%	COc1nccc2c1C(=O)NC(C(=O)NCCc1cc(C3CC3)no1)CC(=O)N(C)C(CC(C)C)C(=O)N(C)C(CC1CCC(F)(F)CC1)C(=O)NC(Cc1ccccc1)CO2 (single isomer, unassigned) [Example 662]		
230%	856 nM		COc1nccc2c1C(=O)N[C@H](C(=O)NCCc1cc(C3CC3)no1)CC(=O)N(C)[C@@H](CC(C)C)C(=O)N1CCC3(CC3)C[C@@H]1C(=O)N[C@H](Cc1ccccc1)CO2 (single isomer, unassigned) [Example 669, (7′S,11′S,17a′S,20′R)-20′-benzyl-N-(2-(3-cyclopropylisoxazol-5-yl)ethyl)-11′-isobutyl-4′-methoxy-10′-methyl-5′,9′,12′,18′-tetraoxo-5′,6′,7′,8′,9′,10′,11′,12′,14′,15′,17′,17a′,18′,19′,20′,21′-hexadecahydrospiro[cyclopropane-1,16′-dipyrido[2,1-f:3′,4′-p][1]oxa[4,7,10,14]tetraazacycloheptadecine]-7′-carboxamide]		

Compound	Emax [3]	EC50 [4]	Emax [5]	Emax [1]	EC50 [2]
COc1cccc(CCNC(=O)[C@@H]2CC(=O)N(C)[C@@H](CC(C)C)C(=O)N(C)[C@@H](CO)C(=O)N[C@H](Cc3ccccc3)COc3ccc4ccccc4c3C(=O)N2)c1 (racemic) [Example 718, (3S,7S,10RS,13R)-13-benzyl-10-(hydroxymethyl)-7-isobutyl-N-(3-methoxyphenethyl)-6,9-dimethyl-1,5,8,11-tetraoxo-1,2,3,4,5,6,7,8,9,10,11,12,13,14-tetradecahydronaphtho[1,2-p][1]oxa[4,7,10,14]tetraazacycloheptadecine-3-carboxamide]	272%				
Cc1cc(CCNC(=O)[C@@H]2CC(=O)N(C)[C@@H](CC(C)C)C(=O)N(C)[C@@H](COC(C)(C)C)C(=O)N[C@H](Cc3ccccc3)COc3ccc4ccccc4c3C(=O)N2)on1 (racemic) [Example 719, (3S,7S,10RS,13R)-13-benzyl-10-(tert-butoxymethyl)-7-isobutyl-6,9-dimethyl-N-(2-(3-methylisoxazol-5-yl)ethyl)-1,5,8,11-tetraoxo-1,2,3,4,5,6,7,8,9,10,11,12,13,14-tetradecahydronaphtho[1,2-p][1]oxa[4,7,10,14]tetraazacycloheptadecine-3-carboxamide]	313%	124 nM			

Reference: patent US20240208992A1, “MACROCYCLES AS CFTR MODULATORS” (Idorsia Pharmaceuticals Ltd, priority 2021, published 2024)
